Measured values: patent publication US10724099B2, “Multiplex methods to assay mixed cell populations simultaneously” (The Broad Institute, Inc., priority 2012, dated 2020)

Assays:
[1] = target: T1, full-length human aurora-A (Homo sapiens, UniProt O14965); test: In vitro kinase assay (EMD Millipore KinaseProfiler); assay type: biochemical; conditions: 10 μM γ-33P-ATP, 200 μM Kemptide, 8 doses in duplicate
T1 construct: Full-length human aurora-A was assayed; purchased EMD Millipore KinaseProfiler service
Method: (§1) In vitro kinase inhibition assays were then performed as follows. Incorporation of radioactivity from 10 μM γ-^33P-ATP was measured across 8 doses in duplicate by the EMD Millipore KinaseProfiler service (Billerica, Mass.) under published standard conditions with […]. Full-length human aurora-A was assayed with 200 μM LRRASLG (Kemptide); full-length human aurora-B with 30 μM […] (SEQ ID NO:5); and full-length human aurora-C with 30 μM […] (SEQ ID NO:6). IC50 values were modeled using least-squares and variable slope with Prism 6.0 software (GraphPad, San Diego, Calif.).

[2] = target: T2, full-length human aurora-B (Homo sapiens, UniProt Q96GD4); test: as above; assay type: biochemical; conditions: 10 μM γ-33P-ATP, 30 μM AKRRRLSSLRA, 8 doses in duplicate
T2 construct: purchased EMD Millipore KinaseProfiler service
Method: as §1

[3] = target: T3, full-length human aurora-C (Homo sapiens, UniProt Q9UQB9); test: as above; assay type: biochemical; conditions: 10 μM γ-33P-ATP, 30 μM AKRRRLSSLRA, 8 doses in duplicate
T3 construct: purchased EMD Millipore KinaseProfiler service
T3 sequence (Q9UQB9 whole entry): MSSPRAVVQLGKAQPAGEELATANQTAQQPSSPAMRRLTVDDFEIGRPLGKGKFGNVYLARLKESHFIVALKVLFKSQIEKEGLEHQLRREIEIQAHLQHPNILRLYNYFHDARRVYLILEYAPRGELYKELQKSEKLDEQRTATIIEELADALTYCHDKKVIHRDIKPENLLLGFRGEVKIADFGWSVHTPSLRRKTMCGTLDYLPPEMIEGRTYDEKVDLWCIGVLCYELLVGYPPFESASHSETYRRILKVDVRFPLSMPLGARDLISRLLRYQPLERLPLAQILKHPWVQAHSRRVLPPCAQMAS
Method: as §1

HCT-116 cells = test: Western blot phosphoserine 10-histone H3; assay type: cell-based; conditions: 10 μM
Method: Finally, HCT-116 cells were treated with 10 μM of DMSO, barasertib, GSK1070916, MLN8054, BRD-7880, or tozasertib. Cells lysates were probed on Western blot using antibodies (diluted 1:1000) to histone H3 (Abcam cat. no. 24834), phosphoserine 10-histone H3 (Cell Signaling Technology cat no. 3377SS), aurora kinase B (Millipore cat. no. 04-1036), or beta-actin (Santa Cruz Biotechnology cat. no. sc-47778) and detected using a LI-COR Odyssey analyzer.

[4] = target: T4, ABL1(T315I)---phosphorylated (Homo sapiens, UniProt P00519, T315I); test: DiscoveRx KinomeScan binding; conditions: Entrez ABL1
T4 construct: purchased DiscoveRx (KINOMEscan scanEDGE panel)

ACVR1B = target: T5, ACVR1B (Homo sapiens, UniProt P36896); test: DiscoveRx KinomeScan binding
T5 construct: purchased DiscoveRx (KINOMEscan scanEDGE panel)

AURKC = target: T6, AURKC (Homo sapiens, UniProt Q9UQB9); test: DiscoveRx KinomeScan binding
T6 construct: purchased DiscoveRx (KINOMEscan; added to the scanEDGE panel)
T6 sequence (Q9UQB9 whole entry): as above

BRAF = target: T7, BRAF (Homo sapiens, UniProt P15056); test: DiscoveRx KinomeScan binding
T7 construct: purchased DiscoveRx (KINOMEscan scanEDGE panel)

BTK = target: T8, BTK (Homo sapiens, UniProt Q06187); test: DiscoveRx KinomeScan binding
T8 construct: purchased DiscoveRx (KINOMEscan scanEDGE panel)
T8 sequence (Q06187 whole entry): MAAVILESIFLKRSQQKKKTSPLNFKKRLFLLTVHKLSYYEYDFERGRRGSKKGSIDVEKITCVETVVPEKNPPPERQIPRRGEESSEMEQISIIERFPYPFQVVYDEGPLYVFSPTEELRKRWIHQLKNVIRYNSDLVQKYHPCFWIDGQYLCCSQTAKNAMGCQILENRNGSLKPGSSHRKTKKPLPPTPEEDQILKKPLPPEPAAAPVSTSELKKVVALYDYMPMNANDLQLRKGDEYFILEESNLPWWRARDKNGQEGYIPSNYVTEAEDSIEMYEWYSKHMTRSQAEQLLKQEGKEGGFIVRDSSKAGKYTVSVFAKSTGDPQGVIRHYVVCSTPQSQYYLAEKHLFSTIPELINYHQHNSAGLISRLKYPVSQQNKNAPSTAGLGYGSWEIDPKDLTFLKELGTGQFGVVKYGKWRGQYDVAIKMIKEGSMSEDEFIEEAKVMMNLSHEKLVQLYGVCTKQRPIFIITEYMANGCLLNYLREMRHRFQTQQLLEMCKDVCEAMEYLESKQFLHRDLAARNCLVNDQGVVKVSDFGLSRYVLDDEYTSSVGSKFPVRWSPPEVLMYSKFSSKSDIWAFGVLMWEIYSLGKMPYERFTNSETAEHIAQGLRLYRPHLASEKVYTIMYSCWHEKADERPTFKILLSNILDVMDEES

CHEK1 = target: T9, CHEK1 (Homo sapiens, UniProt O14757); test: DiscoveRx KinomeScan binding
T9 construct: purchased DiscoveRx scanEDGE panel

FAK = target: T10, FAK (Homo sapiens, UniProt Q05397); test: DiscoveRx KinomeScan binding; conditions: Entrez PTK2
T10 construct: purchased DiscoveRx scanEDGE panel
T10 sequence (Q05397 whole entry): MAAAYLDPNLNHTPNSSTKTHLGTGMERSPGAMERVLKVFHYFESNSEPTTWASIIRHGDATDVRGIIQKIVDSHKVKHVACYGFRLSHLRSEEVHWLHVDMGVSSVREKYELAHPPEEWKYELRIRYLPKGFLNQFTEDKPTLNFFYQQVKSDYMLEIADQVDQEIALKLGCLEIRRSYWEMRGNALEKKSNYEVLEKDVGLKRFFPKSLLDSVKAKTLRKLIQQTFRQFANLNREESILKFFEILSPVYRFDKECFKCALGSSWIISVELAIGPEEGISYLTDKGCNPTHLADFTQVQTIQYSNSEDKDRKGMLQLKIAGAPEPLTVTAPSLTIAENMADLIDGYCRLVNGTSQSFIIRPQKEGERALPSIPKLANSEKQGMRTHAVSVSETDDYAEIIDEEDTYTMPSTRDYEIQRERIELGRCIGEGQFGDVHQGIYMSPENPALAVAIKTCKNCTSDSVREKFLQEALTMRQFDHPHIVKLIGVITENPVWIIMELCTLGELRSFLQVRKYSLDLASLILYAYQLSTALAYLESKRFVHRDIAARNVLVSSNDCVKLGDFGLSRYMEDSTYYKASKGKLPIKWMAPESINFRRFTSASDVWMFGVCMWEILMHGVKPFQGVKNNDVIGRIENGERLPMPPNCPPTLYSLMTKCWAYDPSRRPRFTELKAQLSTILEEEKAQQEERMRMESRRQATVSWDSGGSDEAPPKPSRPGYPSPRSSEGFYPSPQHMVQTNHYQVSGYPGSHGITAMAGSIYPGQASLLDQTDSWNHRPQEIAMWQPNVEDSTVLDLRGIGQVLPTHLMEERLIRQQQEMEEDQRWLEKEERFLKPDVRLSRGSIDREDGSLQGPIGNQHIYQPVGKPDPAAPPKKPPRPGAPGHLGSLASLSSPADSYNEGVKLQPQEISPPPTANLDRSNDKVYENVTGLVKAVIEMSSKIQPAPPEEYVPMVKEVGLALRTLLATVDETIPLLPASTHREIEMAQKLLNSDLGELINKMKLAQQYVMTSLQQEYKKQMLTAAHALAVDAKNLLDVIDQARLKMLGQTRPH

FGFR2 = target: T11, FGFR2 (Homo sapiens, UniProt P21802); test: DiscoveRx KinomeScan binding
T11 construct: purchased DiscoveRx scanEDGE panel

FGFR3 = target: T12, FGFR3 (Homo sapiens, UniProt P22607); test: DiscoveRx KinomeScan binding
T12 construct: purchased DiscoveRx scanEDGE panel

[5] = target: T13, JAK2(JH1domain---catalytic) (Homo sapiens, UniProt O60674); test: DiscoveRx KinomeScan binding
T13 construct: JAK2(JH1domain---catalytic); purchased DiscoveRx scanEDGE panel

JNK2 = target: T14, JNK2 (Homo sapiens, UniProt P45984); test: DiscoveRx KinomeScan binding; conditions: Entrez MAPK9
T14 construct: purchased DiscoveRx scanEDGE panel (KinomeScan)
T14 sequence (P45984 whole entry): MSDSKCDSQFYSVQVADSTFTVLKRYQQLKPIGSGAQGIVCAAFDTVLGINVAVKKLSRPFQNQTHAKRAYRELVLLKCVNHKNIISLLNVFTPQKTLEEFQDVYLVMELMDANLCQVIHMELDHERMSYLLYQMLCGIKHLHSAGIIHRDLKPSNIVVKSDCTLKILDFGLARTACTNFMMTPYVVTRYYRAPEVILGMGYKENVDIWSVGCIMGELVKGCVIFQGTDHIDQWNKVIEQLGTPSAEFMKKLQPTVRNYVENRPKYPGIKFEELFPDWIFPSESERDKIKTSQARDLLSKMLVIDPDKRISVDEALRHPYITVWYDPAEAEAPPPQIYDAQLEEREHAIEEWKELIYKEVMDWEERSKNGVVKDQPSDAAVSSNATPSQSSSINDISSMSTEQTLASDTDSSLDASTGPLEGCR

MKNK2 = target: T15, MKNK2 (Homo sapiens, UniProt Q9HBH9); test: DiscoveRx KinomeScan binding
T15 construct: purchased DiscoveRx scanEDGE panel (KinomeScan)

PAK1 = target: T16, PAK1 (Homo sapiens, UniProt Q13153); test: DiscoveRx KinomeScan binding
T16 construct: purchased DiscoveRx scanEDGE panel (KinomeScan)

PAK4 = target: T17, PAK4 (Homo sapiens, UniProt O96013); test: DiscoveRx KinomeScan binding
T17 construct: purchased DiscoveRx scanEDGE panel (KinomeScan)
T17 sequence (O96013 whole entry): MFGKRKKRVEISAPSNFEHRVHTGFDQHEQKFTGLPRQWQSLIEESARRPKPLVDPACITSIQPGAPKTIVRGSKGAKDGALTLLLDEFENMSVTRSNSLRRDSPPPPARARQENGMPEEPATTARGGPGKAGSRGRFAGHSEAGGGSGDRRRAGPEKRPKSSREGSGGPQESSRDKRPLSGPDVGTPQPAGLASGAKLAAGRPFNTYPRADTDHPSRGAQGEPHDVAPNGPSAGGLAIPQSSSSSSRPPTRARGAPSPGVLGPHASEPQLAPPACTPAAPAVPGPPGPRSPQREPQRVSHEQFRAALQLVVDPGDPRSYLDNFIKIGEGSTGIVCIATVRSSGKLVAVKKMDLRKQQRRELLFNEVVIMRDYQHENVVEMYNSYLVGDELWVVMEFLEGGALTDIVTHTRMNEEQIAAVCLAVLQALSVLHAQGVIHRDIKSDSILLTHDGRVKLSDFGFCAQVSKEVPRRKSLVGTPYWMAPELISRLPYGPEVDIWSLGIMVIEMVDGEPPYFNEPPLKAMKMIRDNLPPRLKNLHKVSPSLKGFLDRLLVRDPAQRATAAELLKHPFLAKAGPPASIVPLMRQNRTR

PDGFRA = target: T18, PDGFRA (Homo sapiens, UniProt P16234); test: DiscoveRx KinomeScan binding
T18 construct: purchased DiscoveRx scanEDGE panel (KinomeScan)
T18 sequence (P16234 24-1089): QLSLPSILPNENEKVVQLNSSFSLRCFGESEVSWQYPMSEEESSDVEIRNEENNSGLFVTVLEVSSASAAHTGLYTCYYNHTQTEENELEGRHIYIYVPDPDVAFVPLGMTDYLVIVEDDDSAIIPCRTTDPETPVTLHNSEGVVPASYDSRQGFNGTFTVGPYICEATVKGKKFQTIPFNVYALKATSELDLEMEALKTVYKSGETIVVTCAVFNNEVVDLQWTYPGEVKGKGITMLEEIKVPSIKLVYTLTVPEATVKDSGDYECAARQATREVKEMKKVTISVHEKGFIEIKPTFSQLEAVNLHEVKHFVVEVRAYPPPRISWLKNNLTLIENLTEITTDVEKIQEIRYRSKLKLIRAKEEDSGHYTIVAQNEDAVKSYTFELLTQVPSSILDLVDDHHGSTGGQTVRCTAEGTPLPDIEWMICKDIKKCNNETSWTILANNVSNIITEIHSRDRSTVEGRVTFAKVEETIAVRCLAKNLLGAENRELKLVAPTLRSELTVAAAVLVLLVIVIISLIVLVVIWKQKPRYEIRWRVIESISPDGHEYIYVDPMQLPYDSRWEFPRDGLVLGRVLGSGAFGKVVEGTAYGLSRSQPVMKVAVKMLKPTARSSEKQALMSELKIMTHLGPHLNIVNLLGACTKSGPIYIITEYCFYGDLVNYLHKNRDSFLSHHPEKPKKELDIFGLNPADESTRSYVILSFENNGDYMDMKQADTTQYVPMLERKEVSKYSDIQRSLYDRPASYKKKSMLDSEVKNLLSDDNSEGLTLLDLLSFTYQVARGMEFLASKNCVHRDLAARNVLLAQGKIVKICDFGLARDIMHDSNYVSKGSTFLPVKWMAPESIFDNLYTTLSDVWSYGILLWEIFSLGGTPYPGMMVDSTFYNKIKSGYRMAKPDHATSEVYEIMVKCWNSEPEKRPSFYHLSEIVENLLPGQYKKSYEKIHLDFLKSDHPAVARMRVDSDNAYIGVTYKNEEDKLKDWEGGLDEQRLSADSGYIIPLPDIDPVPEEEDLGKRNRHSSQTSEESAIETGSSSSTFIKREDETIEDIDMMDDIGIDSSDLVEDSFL

PIK3C2B = target: T19, PIK3C2B (Homo sapiens, UniProt O00750); test: DiscoveRx KinomeScan binding
T19 construct: purchased DiscoveRx scanEDGE panel (KinomeScan)

PIM3 = target: T20, PIM3 (Homo sapiens, UniProt Q86V86); test: DiscoveRx KinomeScan binding
T20 construct: purchased DiscoveRx scanEDGE panel

PKAC---alpha = target: T21, PKAC---alpha (Homo sapiens, UniProt P17612); test: DiscoveRx KinomeScan binding; conditions: Entrez PRKACA
T21 construct: purchased DiscoveRx scanEDGE panel

PLK3 = target: T22, PLK3 (Homo sapiens, UniProt Q9H4B4); test: DiscoveRx KinomeScan binding
T22 construct: purchased DiscoveRx scanEDGE panel

RAF1 = target: T23, RAF1 (Homo sapiens, UniProt P04049); test: DiscoveRx KinomeScan binding
T23 construct: purchased DiscoveRx scanEDGE panel

[6] = target: T24, RSK2(Kin.Dom.1---N---terminal) (Homo sapiens, UniProt P51812); test: DiscoveRx KinomeScan binding; conditions: Entrez RPS6KA3
T24 construct: RSK2(Kin.Dom.1---N---terminal); purchased DiscoveRx scanEDGE panel
T24 sequence (P51812 68-327 limits assumed): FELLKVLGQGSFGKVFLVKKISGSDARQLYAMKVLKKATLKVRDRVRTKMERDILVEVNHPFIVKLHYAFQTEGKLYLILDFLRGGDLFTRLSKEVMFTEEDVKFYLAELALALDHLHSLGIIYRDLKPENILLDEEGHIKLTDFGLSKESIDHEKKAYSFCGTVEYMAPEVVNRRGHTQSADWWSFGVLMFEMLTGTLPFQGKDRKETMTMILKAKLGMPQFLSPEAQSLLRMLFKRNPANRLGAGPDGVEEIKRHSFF

SNARK = target: T25, SNARK (Homo sapiens, UniProt Q9H093); test: DiscoveRx KinomeScan binding; conditions: Entrez NUAK2
T25 construct: purchased DiscoveRx scanEDGE panel

TSSK1B = target: T26, TSSK1B (Homo sapiens, UniProt Q9BXA7); test: DiscoveRx KinomeScan binding
T26 construct: purchased DiscoveRx scanEDGE panel

YANK3 = target: T27, YANK3 (Homo sapiens, UniProt Q86UX6); test: DiscoveRx KinomeScan binding; conditions: Entrez STK32C
T27 construct: purchased DiscoveRx (KinomeScan scanEDGE panel service)
T27 sequence (Q86UX6 whole entry): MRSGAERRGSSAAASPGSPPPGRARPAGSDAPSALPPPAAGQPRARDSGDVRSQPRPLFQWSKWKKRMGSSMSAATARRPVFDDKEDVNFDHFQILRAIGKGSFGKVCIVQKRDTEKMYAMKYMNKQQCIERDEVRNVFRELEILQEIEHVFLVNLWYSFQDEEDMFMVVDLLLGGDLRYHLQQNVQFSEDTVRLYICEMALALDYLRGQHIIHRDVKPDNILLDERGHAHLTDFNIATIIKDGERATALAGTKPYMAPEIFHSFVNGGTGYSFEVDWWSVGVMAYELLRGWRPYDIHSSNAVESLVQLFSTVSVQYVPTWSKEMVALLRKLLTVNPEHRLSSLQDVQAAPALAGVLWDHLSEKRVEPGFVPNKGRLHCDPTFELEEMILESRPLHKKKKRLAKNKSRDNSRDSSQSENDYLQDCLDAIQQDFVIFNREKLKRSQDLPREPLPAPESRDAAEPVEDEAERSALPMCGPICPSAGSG

`COc1ccc(NC(=O)Nc2ccc3c(c2)C(=O)N([C@@H](C)CO)C[C@H](C)[C@H](CN(C)Cc2ccc4c(c2)OCO4)O3)cc1` [BRD-7880] was tested, and the IC50 [1] was 2150 nM, the IC50 [2] was 7 nM and the IC50 [3] was 12 nM. For the same compound, the “phosphorylation of serine 10 on histone H3” value (HCT-116 cells) was “decrease phosphorylation of serine 10 on histone H3”, the “Percent Control” value [4] was 44% and the “Percent Control” value (ACVR1B) was 84%. The “binding to aurora kinase C” value (AURKC) was 3 % of control, the “Percent Control” value (AURKC; AURKC) was 3% and the “Percent Control” value (BRAF) was 70%. For the same compound, the “Percent Control” value (BTK) was 94%, the “Percent Control” value (CHEK1) was 100% and the “Percent Control” value (FAK) was 100%. The “Percent Control” value (FGFR2) was 77%, the “Percent Control” value (FGFR3) was 56% and the “Percent Control” value [5] was 98%. The “Percent Control” value (JNK2) was 89%, the “Percent Control” value (MKNK2) was 77% and the “Percent Control” value (PAK1) was 77%. The “Percent Control” value (PAK4) was 100%, the “Percent Control” value (PDGFRA) was 90% and the “Percent Control” value (PIK3C2B) was 96%. The “Percent Control” value (PIM3) was 72%, the “Percent Control” value (PKAC---alpha) was 69% and the “Percent Control” value (PLK3) was 48%. The “Percent Control” value (RAF1) was 100%, the “Percent Control” value [6] was 80% and the “Percent Control” value (SNARK) was 72%. The “Percent Control” value (TSSK1B) was 57% and the “Percent Control” value (YANK3) was 91%.
